Reference: patent publication US7671054B1, “Reverse-turn mimetics and method relating thereto” (Choongwae Pharma Corporation, priority 2001, dated 2010)
In brackets after ≈: the same amount, converted by molar mass. Entries after “also recorded” stand apart in the source; their conditions may differ.

What was measured:
A375 = assay: Sulforhodamine B (SRB) assay; assay type: cell-based; conditions: Homo sapiens, A-375; A375, Melanoma; 48 hours; read-out: GI50 (SRB in vitro cytotoxicity)
Method: (§1) Growth inhibitory effect of Compound A on the cells listed below was measured by the sulforhodamine B assay. SW480 cells in 100 μl media were plated in each well of 96-well plate and allowed to attach for 24 hours. Compound A was added to the wells to produce the desired final concentrations, and the plates were incubated at 37° C. for 48 hours. The cells were then fixed by gentle addition of 100 μl of cold (4° C.) 10% trichloroacetic acid to each well, followed by incubation at 4° C. for 1 hour. Plates were washed with deionized water five times and allowed to air dry. The cells were then stained by addition of 100 μl SRB solution (0.4% SRB(w/v) in 1% acetic acid (v/v)) to wells for 15 min. After staining, the plates were quickly washed five times with 1% acetic acid to remove any unbound dye, and allowed to air dry. Bound dye was solubilized with 10 mmol/L Tris base (pH 10.5) prior to reading the plates. The optical density (OD) was read on a plate reader at a wavelength of 515 nm with Molecular Device. Inhibition of growth was expressed as relative viability (% of control) and GI50 was calculated from concentration-response curves after log/probit transformation.

MCF7/ADR = assay: Sulforhodamine B (SRB) assay; assay type: cell-based; conditions: Homo sapiens, NCI/ADR-RES, Breast, 48 hours, read-out: GI50 (SRB in vitro cytotoxicity)
Method: as §1

HCC2998 = assay: Sulforhodamine B (SRB) assay; assay type: cell-based; conditions: Homo sapiens, HCC 2998; HCC2998, Colon; 48 hours; read-out: GI50 (SRB in vitro cytotoxicity)
Method: as §1

SW480-CWP = assay: Sulforhodamine B (SRB) assay; assay type: cell-based; conditions: Colon, 48 hours, read-out: GI50 (SRB in vitro cytotoxicity)
Method: as §1

786-0 = assay: Sulforhodamine B (SRB) assay; assay type: cell-based; conditions: Homo sapiens; 786-0, listed under Colon; 48 hours; read-out: GI50 (SRB in vitro cytotoxicity)
Method: as §1

T84 = assay: Sulforhodamine B (SRB) assay; assay type: cell-based; conditions: Homo sapiens; T84, Colon; 48 hours; read-out: GI50 (SRB in vitro cytotoxicity)
Method: as §1

CACO-2 = assay: Sulforhodamine B (SRB) assay; assay type: cell-based; conditions: Homo sapiens; CACO-2, Colon; 48 hours; read-out: GI50 (SRB in vitro cytotoxicity)
Method: as §1

ACHN = assay: Sulforhodamine B (SRB) assay; assay type: cell-based; conditions: Homo sapiens, Renal, 48 hours, read-out: GI50 (SRB in vitro cytotoxicity)
Method: as §1

[1] = Sulforhodamine B (SRB) assay; assay type: cell-based; conditions: human, 293 cells (renal), 293, Renal, read-out: GI50 (SRB in vitro cytotoxicity)
Method: as §1

COLO205 = assay: Sulforhodamine B (SRB) assay; assay type: cell-based; conditions: Homo sapiens, COLO 205; COLO205, Colon; 48 hours; read-out: GI50 (SRB in vitro cytotoxicity)
Method: as §1

HMV-I = assay: Sulforhodamine B (SRB) assay; assay type: cell-based; conditions: Melanoma, 48 hours, read-out: GI50 (SRB in vitro cytotoxicity)
Method: as §1

HCT15 = assay: Sulforhodamine B (SRB) assay; assay type: cell-based; conditions: Homo sapiens, HCT-15; HCT15, Colon; 48 hours; read-out: GI50 (SRB in vitro cytotoxicity)
Method: as §1

MCF7 = assay: Sulforhodamine B (SRB) assay; assay type: cell-based; conditions: Homo sapiens; MCF7, Breast; 48 hours; read-out: GI50 (SRB in vitro cytotoxicity)
Method: as §1

K562 = assay: Sulforhodamine B (SRB) assay; assay type: cell-based; conditions: Homo sapiens; K562, Leukemia; 48 hours; read-out: GI50 (SRB in vitro cytotoxicity)
Method: as §1

LOVO = assay: Sulforhodamine B (SRB) assay; assay type: cell-based; conditions: Homo sapiens, Colon, 48 hours, read-out: GI50 (SRB in vitro cytotoxicity)
Method: as §1

RPMI8226 = assay: Sulforhodamine B (SRB) assay; assay type: cell-based; conditions: Homo sapiens, RPMI-8226; RPMI8226, Leukemia; 48 hours; read-out: GI50 (SRB in vitro cytotoxicity)
Method: as §1

A549 = assay: Sulforhodamine B (SRB) assay; assay type: cell-based; conditions: Homo sapiens; A549, Lung; 48 hours; read-out: GI50 (SRB in vitro cytotoxicity)
Method: as §1

KM12 = assay: Sulforhodamine B (SRB) assay; assay type: cell-based; conditions: Homo sapiens; KM12, Colon; 48 hours; read-out: GI50 (SRB in vitro cytotoxicity)
Method: as §1

SW480-Kribb = assay: Sulforhodamine B (SRB) assay; assay type: cell-based; conditions: Colon, 48 hours, read-out: GI50 (SRB in vitro cytotoxicity)
Method: as §1

HMV-II = assay: Sulforhodamine B (SRB) assay; assay type: cell-based; conditions: Melanoma, 48 hours, read-out: GI50 (SRB in vitro cytotoxicity)
Method: as §1

SK-MEL-5 = assay: Sulforhodamine B (SRB) assay; assay type: cell-based; conditions: Homo sapiens; SK-MEL-5, Melanoma; 48 hours; read-out: GI50 (SRB in vitro cytotoxicity)
Method: as §1

[2] = test system: survivin promoter in SW480 cells; assay: Survivin luciferase reporter in SW480 cells; assay type: cell-based; conditions: SW480 cells; various concentrations
[3] = test system: TCF/β-catenin reporter gene transcription in PC-12 PS-1/L286V cells; assay: TOPFLASH luciferase assay in differentiated PC-12 cells; assay type: cell-based, Rat; conditions: PS-1/L286V mutant PC-12 cells; 10 μM plus NGF
Method: Differentiated PC-12/L286V cells were treated with increasing concentrations of this compound for 4 hours. Transfection was then initiated after this treatment period.
Transfection. PC-12 cells were cultured and differentiated on 60-mm dishes. At the end of the 10-day differentiation period, cells were transfected with 2 μg reporter constructs, TOPFLASH and FOPFLASH, per 60-mm dish. Transfections were performed using Superfect (Qiagen) according to manufacturer's instructions.
Luciferase Assays. Cells were lysed, 6 hours after transfections, in 100 μl of Cell Culture Lysis Reagent (Promega, Madison, Wis.), and scraped into microcentrifuge tubes. Tubes were then centrifuged briefly (about 10 seconds) at 12000 rpm to pellet cell debris. Luciferase activity was measured on 20 μl of cell lysate and 100 μl substrate from the Luciferase Assay System (Promega). Luciferase activity was measure using Packard LumiCount. (Hewlett Packard). Quantitation of luciferase was performed in triplicates, and repeated in at least three independent experiments.

[4] = target: β-catenin/p300 interaction (Homo sapiens, UniProt Q09472); conditions: Emami et al., Cancer Cell, in press; cited from earlier work
β-catenin/p300 interaction, sequence (Q09472 whole entry): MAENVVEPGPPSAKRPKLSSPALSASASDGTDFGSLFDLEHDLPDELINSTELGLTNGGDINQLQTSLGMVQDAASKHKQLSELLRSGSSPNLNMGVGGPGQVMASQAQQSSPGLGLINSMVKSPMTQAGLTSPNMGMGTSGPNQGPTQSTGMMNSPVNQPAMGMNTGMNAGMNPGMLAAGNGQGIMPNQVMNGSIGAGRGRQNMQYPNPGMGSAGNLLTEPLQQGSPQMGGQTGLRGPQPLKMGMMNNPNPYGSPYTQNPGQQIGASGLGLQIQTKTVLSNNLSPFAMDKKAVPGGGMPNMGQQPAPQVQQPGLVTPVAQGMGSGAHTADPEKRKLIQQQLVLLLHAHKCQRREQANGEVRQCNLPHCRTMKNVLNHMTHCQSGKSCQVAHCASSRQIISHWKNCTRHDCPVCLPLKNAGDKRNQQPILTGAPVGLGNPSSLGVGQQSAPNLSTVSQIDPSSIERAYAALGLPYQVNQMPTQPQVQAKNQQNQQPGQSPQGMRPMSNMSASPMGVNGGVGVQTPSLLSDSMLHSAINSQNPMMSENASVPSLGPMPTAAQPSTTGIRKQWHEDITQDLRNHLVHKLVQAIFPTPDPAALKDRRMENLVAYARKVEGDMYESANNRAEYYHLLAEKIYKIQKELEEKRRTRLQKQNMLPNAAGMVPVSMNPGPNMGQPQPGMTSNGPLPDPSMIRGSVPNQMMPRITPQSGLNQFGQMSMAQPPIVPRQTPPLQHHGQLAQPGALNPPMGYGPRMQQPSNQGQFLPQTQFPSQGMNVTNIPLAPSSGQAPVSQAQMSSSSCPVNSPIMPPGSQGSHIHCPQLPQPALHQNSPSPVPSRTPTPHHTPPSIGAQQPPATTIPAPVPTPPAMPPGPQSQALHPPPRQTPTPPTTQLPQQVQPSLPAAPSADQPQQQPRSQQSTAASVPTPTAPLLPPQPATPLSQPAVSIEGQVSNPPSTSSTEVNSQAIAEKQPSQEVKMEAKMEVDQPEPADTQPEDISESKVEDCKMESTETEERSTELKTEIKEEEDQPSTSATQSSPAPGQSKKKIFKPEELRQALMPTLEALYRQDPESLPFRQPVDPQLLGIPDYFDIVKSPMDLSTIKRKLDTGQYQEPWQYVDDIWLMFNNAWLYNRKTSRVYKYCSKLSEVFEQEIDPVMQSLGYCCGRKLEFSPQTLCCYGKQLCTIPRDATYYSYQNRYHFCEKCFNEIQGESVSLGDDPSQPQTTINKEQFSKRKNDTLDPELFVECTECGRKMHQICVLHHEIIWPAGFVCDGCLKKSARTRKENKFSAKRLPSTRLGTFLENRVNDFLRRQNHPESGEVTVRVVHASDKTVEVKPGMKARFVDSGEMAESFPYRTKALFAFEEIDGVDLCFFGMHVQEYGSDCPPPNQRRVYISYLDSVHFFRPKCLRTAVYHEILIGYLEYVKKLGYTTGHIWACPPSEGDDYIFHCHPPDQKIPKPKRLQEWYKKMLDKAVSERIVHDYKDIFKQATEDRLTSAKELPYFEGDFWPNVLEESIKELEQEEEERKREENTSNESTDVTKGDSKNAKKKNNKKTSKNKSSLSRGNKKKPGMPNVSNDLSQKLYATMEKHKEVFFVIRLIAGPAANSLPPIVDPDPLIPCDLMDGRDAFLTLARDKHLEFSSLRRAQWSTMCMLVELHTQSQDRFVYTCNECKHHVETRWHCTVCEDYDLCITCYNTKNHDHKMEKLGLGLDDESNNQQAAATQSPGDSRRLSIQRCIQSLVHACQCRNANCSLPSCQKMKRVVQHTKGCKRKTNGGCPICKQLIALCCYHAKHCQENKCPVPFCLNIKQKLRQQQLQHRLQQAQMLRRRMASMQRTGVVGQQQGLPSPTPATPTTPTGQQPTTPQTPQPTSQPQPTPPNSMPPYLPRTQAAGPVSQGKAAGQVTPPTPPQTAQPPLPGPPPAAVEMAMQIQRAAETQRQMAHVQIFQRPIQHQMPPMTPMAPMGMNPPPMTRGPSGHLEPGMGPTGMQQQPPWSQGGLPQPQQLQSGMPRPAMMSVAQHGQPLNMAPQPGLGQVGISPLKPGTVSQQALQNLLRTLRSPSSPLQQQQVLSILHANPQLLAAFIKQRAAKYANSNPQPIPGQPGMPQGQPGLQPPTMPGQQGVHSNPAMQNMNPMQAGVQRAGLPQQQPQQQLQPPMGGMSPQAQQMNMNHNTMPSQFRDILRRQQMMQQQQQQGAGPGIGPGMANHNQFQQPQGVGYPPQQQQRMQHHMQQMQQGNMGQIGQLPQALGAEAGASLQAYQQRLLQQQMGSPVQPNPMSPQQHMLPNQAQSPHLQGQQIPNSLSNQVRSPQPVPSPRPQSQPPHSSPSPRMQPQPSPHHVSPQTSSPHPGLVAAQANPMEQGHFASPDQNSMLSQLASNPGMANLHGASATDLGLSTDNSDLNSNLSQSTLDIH

## O=c1[nH]cc(F)c(=O)[nH]1 [Compound 5-FU, 5-fluorouracil]
A375
  GI50: 1.46 µg/mL (≈ 11.3 µM)
MCF7/ADR
  GI50: > 10 µg/mL
HCC2998
  GI50: 5.49 µg/mL (≈ 42.2 µM)
SW480-CWP
  GI50: > 10 µg/mL
786-0
  GI50: 0.584 µg/mL (≈ 4.49 µM)
T84
  GI50: 1.82 µg/mL (≈ 14 µM)
CACO-2
  GI50: 0.451 µg/mL (≈ 3.47 µM)
ACHN
  GI50: 5.06 µg/mL (≈ 38.9 µM)
[1]
  GI50 at 48 h: 2.02 µg/mL (≈ 15.5 µM)
COLO205
  GI50: 1.13 µg/mL (≈ 8.69 µM)
HMV-I
  GI50: 2.11 µg/mL (≈ 16.2 µM)
HCT15
  GI50: 1.18 µg/mL (≈ 9.06 µM)
MCF7
  GI50: 1.75 µg/mL (≈ 13.5 µM)
K562
  GI50: 6.13 µg/mL (≈ 47.1 µM)
LOVO
  GI50: 1.03 µg/mL (≈ 7.91 µM)
RPMI8226
  GI50: > 10 µg/mL
A549
  GI50: 1.01 µg/mL (≈ 7.74 µM)
KM12
  GI50: 2.73 µg/mL (≈ 21 µM)
SW480-Kribb
  GI50: > 10 µg/mL
HMV-II
  GI50: 0.695 µg/mL (≈ 5.34 µM)
SK-MEL-5
  GI50: 2.43 µg/mL (≈ 18.7 µM)

## O=C1[C@H](Cc2ccc(O)cc2)N2C(=O)CCN(C(=O)NCc3ccccc3)[C@H]2CN1Cc1cccc2ccccc12 [Compound D]
[2]
  survivin luciferase reporter activity: inhibit expression of survivin; also recorded: inhibit the activity of a survivin luciferase reporter
[3]
  TCF/β-catenin reporter gene transcription: decreased TCF/β-catenin reporter gene transcription
[4]
  β-catenin/p300 interaction: not the β-catenin/p300 interaction
